Laboratory results reported in ChEMBL document CHEMBL1201862, “PubChem BioAssay data set” (2004).
Calls of active or inactive are those of the source.

Assays:
Streptokinase A = target: T1, Streptokinase A (Streptococcus pyogenes serotype M1, UniProt P10520); assay: viability-normalized secreted streptokinase activity reduction – plasminogen activation absorbance, OD405, dose response (AID 1914); assay type: functional, Streptococcus pyogenes M1 GAS;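 note: secreted streptokinase activity via plasminogen activation per viability signal from cell pellet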
T1 sequence (P10520 whole entry): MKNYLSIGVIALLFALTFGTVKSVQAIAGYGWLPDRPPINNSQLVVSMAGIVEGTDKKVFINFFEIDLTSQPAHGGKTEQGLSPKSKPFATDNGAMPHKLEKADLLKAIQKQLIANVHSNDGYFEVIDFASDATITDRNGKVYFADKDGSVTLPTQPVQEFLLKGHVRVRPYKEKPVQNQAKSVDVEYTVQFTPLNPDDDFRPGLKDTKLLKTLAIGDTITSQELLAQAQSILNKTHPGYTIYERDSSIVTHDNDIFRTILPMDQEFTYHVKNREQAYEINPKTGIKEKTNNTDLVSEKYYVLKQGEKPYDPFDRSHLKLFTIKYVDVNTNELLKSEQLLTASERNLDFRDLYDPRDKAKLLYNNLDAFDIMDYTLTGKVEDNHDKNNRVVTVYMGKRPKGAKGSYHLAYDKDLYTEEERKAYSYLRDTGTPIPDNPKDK

[1] = tested on: Streptococcus sp. 'group A'; assay: Streptococcus pyogenes SK(-)GAS viability under kanamycin – luminescence, BacTiterGlo, confirmation, counter-screen for streptokinase expression inhibitor project, dose response (AID 1900); assay type: functional, organism-based
[2] = microbe, parasite or virus in culture; assay type: functional; conditions: Mycobacterium tuberculosis
Streptococcus = assay: GAS UMAA2166 growth inhibition – luminescence, BacTiterGlo, counter-screen for streptokinase expression inhibitor project, dose response (AID 1915); assay type: functional, organism-based;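 note: potency for reduction of bacterial viability or growth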
[3] = Luminescence Cell-Based Dose Retest to Confirm Inhibitors of Cancer Stem Cells. [Related pubchem assays (depositor defined):AID2717, AID2721]; assay type: functional; conditions: Homo sapiens
Cytochrome P450 2C9 = Cytochrome P450 2C9 (Homo sapiens, UniProt P11712)
Cytochrome P450 2C19 = Cytochrome P450 2C19 (Homo sapiens, UniProt P33261); assay: Cytochrome panel assay with activity outcomes. Panel member name: p450-cyp2c19 Compounds with AC50 equal or less than 10 uM are considered active; assay type: functional; conditions: read-out: AC50
Cytochrome P450 2D6 = Cytochrome P450 2D6 (Homo sapiens, UniProt P10635);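 note: CYP2D6 member of a cytochrome P450 panel assay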
Cytochrome P450 3A4 = Cytochrome P450 3A4 (Homo sapiens, UniProt P08684);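 note: CYP3A4 tested as one member of a cytochrome P450 panel screen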
[4] = target: T2, Replicative DNA helicase DnaB (Mycobacterium tuberculosis, UniProt P9WMR3); assay: DnaB intein splicing inhibitors, dose response, biochemical, cell-free fluorescence (AID 449749); assay type: functional
T2 sequence (P9WMR3 whole entry): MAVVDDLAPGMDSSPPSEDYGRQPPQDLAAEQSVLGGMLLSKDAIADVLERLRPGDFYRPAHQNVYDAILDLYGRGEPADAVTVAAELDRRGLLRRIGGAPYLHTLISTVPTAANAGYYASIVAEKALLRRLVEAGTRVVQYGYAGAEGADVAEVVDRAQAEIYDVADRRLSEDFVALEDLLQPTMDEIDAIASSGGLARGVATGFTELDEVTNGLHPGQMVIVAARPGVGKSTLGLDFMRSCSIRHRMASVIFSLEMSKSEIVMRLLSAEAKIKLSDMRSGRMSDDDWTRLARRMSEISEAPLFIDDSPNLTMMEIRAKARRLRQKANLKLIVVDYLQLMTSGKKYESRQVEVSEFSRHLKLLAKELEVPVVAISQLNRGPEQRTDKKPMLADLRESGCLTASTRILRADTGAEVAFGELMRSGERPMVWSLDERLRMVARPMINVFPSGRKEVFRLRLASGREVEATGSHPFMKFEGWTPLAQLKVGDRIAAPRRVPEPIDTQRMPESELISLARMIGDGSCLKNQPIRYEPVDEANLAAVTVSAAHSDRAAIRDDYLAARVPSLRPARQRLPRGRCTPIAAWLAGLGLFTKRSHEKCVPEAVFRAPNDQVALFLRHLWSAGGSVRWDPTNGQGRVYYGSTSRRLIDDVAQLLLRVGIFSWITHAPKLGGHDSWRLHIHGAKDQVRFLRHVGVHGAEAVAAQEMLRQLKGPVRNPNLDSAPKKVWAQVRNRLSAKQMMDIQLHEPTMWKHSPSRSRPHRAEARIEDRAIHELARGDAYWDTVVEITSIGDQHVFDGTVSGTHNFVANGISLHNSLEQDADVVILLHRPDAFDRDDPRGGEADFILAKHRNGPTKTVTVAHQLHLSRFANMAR

Protein RecA = target: T3, Protein RecA (Mycobacterium tuberculosis, UniProt P9WHJ3); assay: Fluorescence Cell-Free Homogeneous Dose Retest to Identify Inhibitors of RecA-Intein Splicing Activity. [Related pubchem assays (depositor defined):AID2097, AID2223, AID489010, AID492950]; assay type: functional
T3 sequence (P9WHJ3 whole entry): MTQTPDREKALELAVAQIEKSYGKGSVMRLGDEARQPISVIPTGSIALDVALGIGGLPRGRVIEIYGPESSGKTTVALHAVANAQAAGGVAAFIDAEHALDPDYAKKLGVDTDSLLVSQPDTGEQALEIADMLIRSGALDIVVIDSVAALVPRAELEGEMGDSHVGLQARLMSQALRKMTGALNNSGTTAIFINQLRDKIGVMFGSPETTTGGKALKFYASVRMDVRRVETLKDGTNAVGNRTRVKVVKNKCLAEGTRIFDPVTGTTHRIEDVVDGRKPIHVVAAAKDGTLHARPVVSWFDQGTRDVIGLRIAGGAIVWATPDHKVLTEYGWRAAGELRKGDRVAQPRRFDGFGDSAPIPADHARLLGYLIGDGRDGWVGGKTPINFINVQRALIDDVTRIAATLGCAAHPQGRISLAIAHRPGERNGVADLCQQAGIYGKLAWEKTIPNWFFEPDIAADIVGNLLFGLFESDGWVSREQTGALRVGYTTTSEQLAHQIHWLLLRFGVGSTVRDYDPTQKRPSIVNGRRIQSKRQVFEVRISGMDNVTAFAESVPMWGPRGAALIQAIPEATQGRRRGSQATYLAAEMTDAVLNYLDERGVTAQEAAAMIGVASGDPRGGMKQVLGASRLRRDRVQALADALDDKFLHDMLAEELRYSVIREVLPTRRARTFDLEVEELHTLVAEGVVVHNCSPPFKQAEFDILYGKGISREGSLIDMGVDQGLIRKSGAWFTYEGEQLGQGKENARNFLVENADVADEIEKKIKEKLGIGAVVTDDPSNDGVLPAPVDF

[5] = target: Induced myeloid leukemia cell differentiation protein Mcl-1 (Homo sapiens, UniProt Q07820); assay type: functional
Cytochrome P450 1A2 = target: T4, Cytochrome P450 1A2 (Homo sapiens, UniProt P05177);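 note: PubChem cytochrome P450 panel assay, CYP1A2 panel member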
T4 sequence (P05177 whole entry): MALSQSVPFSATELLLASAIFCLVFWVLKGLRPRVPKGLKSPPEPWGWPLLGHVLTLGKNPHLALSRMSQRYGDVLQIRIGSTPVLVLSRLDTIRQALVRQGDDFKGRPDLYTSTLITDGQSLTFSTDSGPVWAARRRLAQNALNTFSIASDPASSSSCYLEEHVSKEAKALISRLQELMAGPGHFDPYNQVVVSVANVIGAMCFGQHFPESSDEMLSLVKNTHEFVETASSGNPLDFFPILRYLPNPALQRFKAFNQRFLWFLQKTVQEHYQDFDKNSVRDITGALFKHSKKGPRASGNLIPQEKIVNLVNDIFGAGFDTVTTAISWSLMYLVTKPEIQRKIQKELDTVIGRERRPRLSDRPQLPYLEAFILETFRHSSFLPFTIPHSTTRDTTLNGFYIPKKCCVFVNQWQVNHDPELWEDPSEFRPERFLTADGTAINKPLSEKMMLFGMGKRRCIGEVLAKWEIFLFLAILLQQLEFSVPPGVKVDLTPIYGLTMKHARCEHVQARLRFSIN

[6] = target: T5, Heat shock factor protein 1 (Mus musculus, UniProt P38532); assay: enhancement of HSF1-driven luciferase signal – cell-based, NIH3T3, luminescence, dose retest, confirmation (AID 435004); assay type: functional;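 note: stress induced by proteasome inhibitor MG132 added 30 min after compound; luciferase reporter driven by HSF1 response element in NIH3T3 cells; actives raise luminescence as potentiators of the MG132 stress response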
T5 sequence (P38532 whole entry): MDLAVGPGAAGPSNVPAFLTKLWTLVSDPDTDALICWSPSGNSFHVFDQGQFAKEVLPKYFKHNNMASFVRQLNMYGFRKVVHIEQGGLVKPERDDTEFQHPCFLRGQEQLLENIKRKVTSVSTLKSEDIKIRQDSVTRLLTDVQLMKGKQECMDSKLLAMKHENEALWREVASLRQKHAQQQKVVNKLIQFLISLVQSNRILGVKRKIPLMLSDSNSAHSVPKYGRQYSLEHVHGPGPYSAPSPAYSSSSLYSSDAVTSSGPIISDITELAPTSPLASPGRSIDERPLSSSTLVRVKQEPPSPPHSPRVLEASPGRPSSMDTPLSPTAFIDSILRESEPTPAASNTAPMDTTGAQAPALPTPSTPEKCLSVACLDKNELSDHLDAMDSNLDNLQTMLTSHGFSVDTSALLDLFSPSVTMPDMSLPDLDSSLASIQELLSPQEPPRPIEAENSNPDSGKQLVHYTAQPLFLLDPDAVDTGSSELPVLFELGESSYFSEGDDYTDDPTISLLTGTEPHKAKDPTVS

[7] = P. falciparum Dd2 growth inhibitors, dose response, SYBR Green, cherry-picked samples (AID 1159567); assay type: functional, cell-based

Chain of Cytochrome P450 2C9 (P11712 whole entry): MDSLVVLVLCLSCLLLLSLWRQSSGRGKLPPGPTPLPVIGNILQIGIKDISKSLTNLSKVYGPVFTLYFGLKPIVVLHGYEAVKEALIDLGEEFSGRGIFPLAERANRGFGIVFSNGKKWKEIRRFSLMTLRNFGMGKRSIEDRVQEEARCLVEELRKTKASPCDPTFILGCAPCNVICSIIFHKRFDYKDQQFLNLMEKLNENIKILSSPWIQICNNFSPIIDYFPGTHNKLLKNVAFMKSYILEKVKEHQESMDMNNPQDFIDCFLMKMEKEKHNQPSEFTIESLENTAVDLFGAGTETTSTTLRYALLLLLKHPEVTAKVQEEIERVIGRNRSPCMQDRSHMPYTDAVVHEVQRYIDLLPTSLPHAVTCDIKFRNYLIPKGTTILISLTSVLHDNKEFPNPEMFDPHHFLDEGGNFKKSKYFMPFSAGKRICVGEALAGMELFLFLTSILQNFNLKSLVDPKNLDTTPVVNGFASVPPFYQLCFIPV
Chain of Induced myeloid leukemia cell differentiation protein Mcl-1 (Q07820 whole entry): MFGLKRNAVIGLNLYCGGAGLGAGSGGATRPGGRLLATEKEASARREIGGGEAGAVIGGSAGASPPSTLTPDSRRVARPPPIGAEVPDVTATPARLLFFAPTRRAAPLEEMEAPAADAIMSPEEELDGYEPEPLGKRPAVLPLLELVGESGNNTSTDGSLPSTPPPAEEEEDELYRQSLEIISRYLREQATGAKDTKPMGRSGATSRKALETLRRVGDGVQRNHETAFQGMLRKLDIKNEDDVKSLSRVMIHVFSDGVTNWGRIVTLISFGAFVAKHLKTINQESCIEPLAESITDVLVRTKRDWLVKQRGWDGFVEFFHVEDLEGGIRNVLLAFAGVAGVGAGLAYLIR
Chain of Cytochrome P450 3A4 (P08684 whole entry): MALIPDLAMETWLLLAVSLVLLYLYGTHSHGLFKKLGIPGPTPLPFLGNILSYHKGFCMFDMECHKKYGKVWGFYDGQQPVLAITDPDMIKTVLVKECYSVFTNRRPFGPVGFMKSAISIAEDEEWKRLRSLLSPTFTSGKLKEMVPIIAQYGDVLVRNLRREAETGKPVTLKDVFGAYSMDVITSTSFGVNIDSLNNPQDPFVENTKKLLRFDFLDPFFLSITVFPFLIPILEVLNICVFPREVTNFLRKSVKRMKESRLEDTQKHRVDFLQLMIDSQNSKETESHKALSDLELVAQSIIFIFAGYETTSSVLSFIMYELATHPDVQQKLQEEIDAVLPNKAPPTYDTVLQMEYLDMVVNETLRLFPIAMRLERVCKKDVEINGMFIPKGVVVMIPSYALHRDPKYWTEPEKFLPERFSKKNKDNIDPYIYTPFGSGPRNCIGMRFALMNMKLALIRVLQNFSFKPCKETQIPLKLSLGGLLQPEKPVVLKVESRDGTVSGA
Chain of Cytochrome P450 2D6 (P10635 whole entry): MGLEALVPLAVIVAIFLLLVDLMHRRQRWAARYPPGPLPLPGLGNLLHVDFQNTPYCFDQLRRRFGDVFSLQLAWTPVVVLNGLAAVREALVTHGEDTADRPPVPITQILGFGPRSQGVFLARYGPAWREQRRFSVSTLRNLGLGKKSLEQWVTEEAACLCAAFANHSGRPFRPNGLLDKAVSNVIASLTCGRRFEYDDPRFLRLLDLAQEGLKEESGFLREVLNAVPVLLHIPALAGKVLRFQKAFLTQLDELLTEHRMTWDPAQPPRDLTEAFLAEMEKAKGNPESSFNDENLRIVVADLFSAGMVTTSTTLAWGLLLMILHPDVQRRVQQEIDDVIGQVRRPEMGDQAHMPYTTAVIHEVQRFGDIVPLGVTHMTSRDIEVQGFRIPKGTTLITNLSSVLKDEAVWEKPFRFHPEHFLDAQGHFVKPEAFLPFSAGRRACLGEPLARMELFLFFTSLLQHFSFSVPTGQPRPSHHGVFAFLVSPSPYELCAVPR
Chain of Cytochrome P450 2C19 (P33261 whole entry): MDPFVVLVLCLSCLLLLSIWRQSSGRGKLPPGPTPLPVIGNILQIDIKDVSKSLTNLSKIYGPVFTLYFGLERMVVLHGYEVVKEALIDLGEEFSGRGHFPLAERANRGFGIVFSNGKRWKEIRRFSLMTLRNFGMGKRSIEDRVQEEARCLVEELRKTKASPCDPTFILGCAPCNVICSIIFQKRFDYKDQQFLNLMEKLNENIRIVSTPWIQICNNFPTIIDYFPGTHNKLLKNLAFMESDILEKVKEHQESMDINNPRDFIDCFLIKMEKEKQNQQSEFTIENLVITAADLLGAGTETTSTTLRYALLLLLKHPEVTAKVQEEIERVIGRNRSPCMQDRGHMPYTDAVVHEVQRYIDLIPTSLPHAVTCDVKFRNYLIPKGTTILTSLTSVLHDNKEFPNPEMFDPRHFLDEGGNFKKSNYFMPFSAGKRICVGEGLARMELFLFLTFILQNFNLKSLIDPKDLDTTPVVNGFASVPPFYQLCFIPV

CCn1nc(NC(=O)c2ccncc2)c2cc3cc(C)ccc3nc21
EC50 (Streptokinase A): > 150 µM (not active)
EC50 [1]: 1.88 µM (active)
CC50 [2]: > 40 µM (active)
EC50 (Streptococcus): 11.4 µM (active)

CCc1c(C)sc2nc3c(C(=O)N4CCOCC4)cc(C(=O)c4cc(F)ccc4O)cn3c(=O)c12
CC50 [2]: > 40 µM (active)

Cc1cc(=O)oc2cc(Oc3ccc([N+](=O)[O-])cc3C(F)(F)F)ccc12
CC50 [2]: > 40 µM (active)

Cc1ccc(C)c(NC(=O)c2cc(-c3ccccc3)nn2-c2ccccc2)c1
AC50 [3]: 33.9 µM (active)
CC50 [2]: > 40 µM (active)

CCOC(=O)N1CCN(C(=O)c2ccc(OC)c(OC)c2)CC1
AC50 (Cytochrome P450 2C9): inconclusive
AC50 (Cytochrome P450 2C19): 25.1 µM (inconclusive)

Cc1cnc(CNc2ncnc3ccc(-c4cccc(NS(C)(=O)=O)c4)cc23)cn1
AC50 (Cytochrome P450 2C9): inconclusive
AC50 (Cytochrome P450 2D6): 25.1 µM (inconclusive)

N[C@@H](Cc1ncccn1)C(=O)O
AC50 (Cytochrome P450 2C9): inconclusive

O=c1c(-c2cc(F)cc(F)c2)nc2cncnc2n1C1CC1
AC50 (Cytochrome P450 2C9): inconclusive
AC50 (Cytochrome P450 3A4): 7.94 µM (inconclusive)

O=C(Nc1ccc(Cl)cc1)N(Cc1nc(O)c2ccccc2n1)Cc1cccs1
CC50 [2]: > 40 µM (active)

O=C(CCN1C(=O)c2cccc3cccc(c23)C1=O)N1CCN(Cc2ccc3c(c2)OCO3)CC1
AC50 (Cytochrome P450 2C9): inconclusive

Cc1nc([N+](=O)[O-])c(Sc2nc3ccccc3[nH]2)n1Cc1ccccc1
AC50 [4]: 15.3 µM (active)
EC50 (Protein RecA): 12.3 µM (active)

Cn1c(=O)c(C(=O)NNC(=O)c2cccc(Cl)c2)c(O)c2ccccc21
CC50 [2]: > 40 µM (active)

Cc1ccccc1-c1nc(C[S+]([O-])CC(=O)NCCCN(C)c2ccccc2)c(C)o1 (centres undefined)
AC50 (Cytochrome P450 2C9): inconclusive
AC50 (Cytochrome P450 2D6): 25.1 µM (inconclusive)

CCN(c1ccc(NC(=O)CCNC(=O)c2ccco2)cc1)C(C)C
IC50 [5]: 3.29 µM (not active)

COCc1n[nH]c2c1C(c1ccsc1)C(C#N)=C(N)O2 (centres undefined)
AC50 [4]: 21.1 µM (active)
EC50 (Protein RecA): 4.35 µM (active)

Cc1cccc(S(=O)(=O)C(C#N)c2nc3ccccc3nc2N2CCCC2)c1 (centres undefined)
EC50 (Protein RecA): > 380 µM (inactive)

COc1ccc(C)cc1NC(=O)c1cc2cc3ccc(C)cc3nc2o1
AC50 (Cytochrome P450 2C9): inconclusive
AC50 (Cytochrome P450 1A2): 1.26 µM (inconclusive)

O=C(Nc1ccn(Cc2ccccc2F)n1)c1ccc(COc2ccccc2Cl)cc1
AC50 [3]: 1.02 µM (active)
CC50 [2]: > 40 µM (active)

O=C(Nc1ccc(N2CCOCC2)cc1)Nc1ccc2nsnc2c1
AC50 [4]: 170 µM (active)
EC50 (Protein RecA): > 380 µM (inactive)

O=C1OCCC1Sc1nnc(-c2ccc(O)cc2)o1 (centres undefined)
AC50 (Cytochrome P450 2C9): inconclusive
AC50 (Cytochrome P450 3A4): 7.08 µM (inconclusive)

COc1ccc(N(C(=O)COc2cccc(C)c2)S(=O)(=O)c2ccc(C)cc2)cc1
AC50 [4]: 4.29 µM (active)
EC50 (Protein RecA): 4.53 µM (active)

CCOC(=O)c1c(NC(C)=O)sc2c1CCC(/C=N/CCCN(CC)CC)=C2Sc1ccccc1
AC50 [4]: 0.239 µM (active)
EC50 (Protein RecA): 0.229 µM (active)
EC50 [6]: 16.6 µM (active)

CCn1nc(C)c(/C=N/NC(=O)Cc2ccc(Cl)cc2)c1C
IC50 [5]: < 0.4 µM (not active)

Cc1nn(-c2ccccc2)c(O)c1/C=N/N1CCOCC1
AC50 [4]: 39.3 µM (active)
EC50 (Protein RecA): 31.7 µM (active)

COC(=O)c1ccc(/N=C2\C(Cl)=C(O)OC2OC(=O)c2ccccc2)cc1 (centres undefined)
AC50 [4]: 10.9 µM (active)
EC50 (Protein RecA): 17.8 µM (active)

CN(C)c1ccc(/C=c2\sc3nc(-c4ccccc4)nn3c2=O)cc1
IC50 [5]: 5.67 µM (active)

COc1ccccc1NC(=O)N(C)C[C@H]1OCc2ccccc2-c2c(n(C)c3ccccc23)C(=O)N([C@@H](C)CO)C[C@@H]1C
AC50 [7]: 4.25 µM (active)

CCC(=O)Nc1ccc2c(c1)OC[C@@H](C)N(Cc1ccccc1)C[C@@H](C)[C@H](OC)CN(C)C2=O
AC50 [7]: 5.57 µM (active)

COc1ccc2c3c(n(C)c2c1)[C@H](CO)N(C(=O)C1CC1)CC31CN(C(=O)C2CCOCC2)C1
AC50 [7]: 22.6 µM (active)

COCC(=O)Nc1ccc2c(c1)OC[C@H](C)N(Cc1ccncc1)C[C@H](C)[C@@H](OC)CN(C)C2=O
AC50 [7]: 25.2 µM (active)
